Values after ≈ are worked out from the molar mass of the structure shown.

In one series the test system is A2780 cells. As to the kind of experiment: MTT antiproliferative assay, A2780. The class given is cell-based, human. The following applies: Homo sapiens, 72 h, values <20% considered negligible, read-out: Growth inhibition (%) ± SEM, A2780. The gist of the method:
(§1)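 Cells grown in Eagle's minimal essential medium with 10% FBS at 37 °C, 5% CO2 were seeded at 5000/well, left overnight, then exposed to compounds at 10 μM and 30 μM for 72 h. Growth inhibition was read by MTT (4 h), formazan dissolved in DMSO, absorbance at 545 nm.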
(In general: Tetrazolium assays rely on reduction of a dye to a coloured formazan, in cell work by metabolically active cells.)

The test system of a further series is MDA-MB-231 cells. The series can be described thus: MTT antiproliferative assay, MDA-MB-231. To be noted: Homo sapiens, 72 h, values <20% considered negligible, read-out: Growth inhibition (%) ± SEM, MDA-MB-231. The class given is cell-based, human. The gist of the method:
as §1

Another series relates to SiHa cells. As to the kind of experiment: MTT antiproliferative assay, SiHa. The series is classed as cell-based, human. The following applies: Homo sapiens, SiHa, 72 h, values <20% considered negligible, read-out: Growth inhibition (%) ± SEM, SiHa. The gist of the method: as §1
For the next series, the system named is MCF-7 cells. The series can be described thus: MTT antiproliferative assay, MCF-7. The class given is cell-based, human. The following applies: Homo sapiens, 72 h, values <20% considered negligible, read-out: Growth inhibition (%) ± SEM, MCF-7. The gist of the method:
as §1

Series [1] in a line: Kinetic aqueous solubility. The class given is physicochemical. The following applies: phosphate buffered saline with 5% DMSO, aqueous with cosolvent or surfactant or cyclodextrin, kinetic from dmso stock; after 2 h, at 37 °C in PBS, pH 7.4, 5% DMSO; target concentration 500 μM; mean ± S.E.M, n = 3. The gist of the method: (§2)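 Kinetic solubility: filtrates quantified by HPLC-DAD-MS against 5–500 μM calibration, target concentration 500 μM. PAMPA-GI: pH 6.5 phosphate donor, pH 7.4 PBS/5% DMSO acceptor, phosphatidylcholine/cholesterol 2:1 in dodecane membrane, 4 h at 37 °C; Pe and membrane retention calculated from HPLC-DAD-MS concentrations.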

Another series has as its system HeLa cells. As to the kind of experiment: MTT antiproliferative assay, HeLa. The series is classed as cell-based, human. To be noted: Homo sapiens, HeLa, 72 h, values <20% considered negligible, read-out: Growth inhibition (%) ± SEM, HeLa. The gist of the method:
as §1

The nature of series [2]: Intestinal-specific parallel artificial membrane permeability assay (PAMPA-GI). The class given is in vitro ADME. The following applies: gradient pH system (pH donor 6.5 → pH acceptor 7.4) after 4 h, at 37 °C; mean ± S.E.M, n = 3. The gist of the method: as §2
In general terms: The PAMPA barrier holds no transporters, so it reflects passive diffusion.

In series [3] the test system is human cancer cell lines (HeLa, SiHa, A2780, MCF-7 and MDA-MB-231). As to the kind of experiment: MTT antiproliferative assay, whole cancer cell panel. The series is classed as cell-based. The following applies: 10 and 30 μM. The procedure: The in vitro antiproliferative activities of the synthesised aminotriols 5–18 against a panel of different human cancer cell lines of gynecological origin, including cervical (SiHA and HeLa), breast (MCF7 and MDA-MB-231), ovary (A2780) cancers and NIH/3T3 healthy fibroblasts, were assayed by the MTT method. Cisplatin, a clinically applied anticancer agent was used as a reference compound, and the results are summarised in Figure 3 and Table S1 in the Supplementary Materials.
The growth-inhibitory effects of the presented terpenes were determined by a standard MTT [3-(4,5-dimethylthiazol2-yl)-2,5-diphenyltetrazolium bromide] assay against […] human cancer cell lines (cervical cancer HeLa and SiHa cell lines, breast cancer MCF-7 and MDA-MB-231 and ovarian cancer A2780). Murine embryonal fibroblast cells (NIH/3T3) were used to determine selectivity. All cell lines were purchased from the European Collection of Cell Cultures (Salisbury, UK). The cells were cultivated in Eagle’s minimal essential medium supplemented with 10% fetal bovine serum, 1% non-essential amino acids, and 1% Antibiotic-Antimycotic complex (penicillin, streptomycin, amphotericin B) at 37 °C in a humidified atmosphere containing 5% CO2. All media and supplements were purchased from Lonza Group Ltd. (Basel, Switzerland). Cancer cells were seeded into 96-well plates (5000 cells/well) after an overnight incubation, and the test compounds were added at two different concentrations (10 μM and 30 μM) and incubated for another 72 h under cell-culturing conditions. Finally, 20 μL of a 5 mg/mL MTT solution was added to each well, and the contents were incubated for a further 4 h. The medium was removed, and the precipitated formazan crystals were dissolved in DMSO by shaking at 37 °C for 60 min. The absorbance was measured at 545 nm by using a microplate reader (SPECTROStar Nano, BMG Labtech, Offenburg, Germany). Clinically utilised anticancer agent cisplatin (Ebewe GmbH, Unterach, Austria) was included as a reference molecule. Calculations were performed using the GraphPad Prism 9 software (GraphPad Software Inc., San Diego, CA, USA).

A further series deals with NIH/3T3 fibroblasts. The series can be described thus: MTT assay on fibroblasts (selectivity). To be noted: Mus musculus, 72 h, values <20% considered negligible, read-out: Growth inhibition (%) ± SEM, NIH/3T3. The class given is cell-based, murine. The gist of the method:
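Absorbance at 545 nm of DMSO-solubilised formazan, formed during a 4 h MTT incubation, gave growth inhibition after 72 h compound treatment at two concentrations, 10 and 30 μM. Seeding was 5000 cells per well with overnight attachment; medium was EMEM plus 10% fetal bovine serum.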

The term melting point denotes the temperature of the solid-liquid transition. Usually solubility (kinetic) stands for the concentration staying in solution when a stock, usually in DMSO, is diluted into the medium. The compound `COC(=O)[C@]1(C)CCC[C@@]2(C)C3CC[C@]4(O)C[C@@]3(CCC21)[C@@H](O)[C@]4(O)CN` (stereo partly drawn) [Compound 17, (4R,6aR,7R,8R,9S,11bS)-Methyl 8-(Aminomethyl)-7,8,9-trihydroxy-4,11b-dimethyltetradecahydro-6a,9-methanocyclohepta[a]naphthalene-4-carboxylate] came in with a melting point of 152 to 155 °C. Also, the inhibition at 10 µM in the series on A2780 cells (A2780, 10 μM) is under 20%. For the same compound, the inhibition at 30 µM in the series with A2780 cells (A2780, 30 μM) is under 20%. The inhibition at 10 µM with MDA-MB-231 cells (MDA-MB-231, 10 μM) is under 20%. Moreover, in the series with MDA-MB-231 cells (MDA-MB-231, 30 μM), the inhibition at 30 µM was 30.4 ± 2.04%. In the series with SiHa cells (10 μM), the inhibition at 10 µM is under 20%. Further, the inhibition at 30 µM in the series on SiHa cells (30 μM) was under 20%. Besides, in the series on MCF-7 cells (MCF7, 10 μM), the inhibition at 10 µM was under 20%. In addition, the inhibition at 30 µM with MCF-7 cells (MCF7, 30 μM) was under 20%. Moreover, the kinetic solubility at 2 h in series [1] amounted to 535 ± 38.4 µM (≈ 204 µg/mL). For the same compound, the inhibition at 10 µM in the series on HeLa cells (10 μM) was under 20%. In addition, in the series on HeLa cells (30 μM), the inhibition at 30 µM is 28.9 ± 2.72%. The “PAMPA-GI MR (membrane retention)” value in series [2] was determined as 1.5 ± 0.3%. Moreover, in [3], the “Antiproliferative activity on the cancer cell panel, in words” value is recorded as “any notable effect was not detectable”. Also, the inhibition at 10 µM in the series on NIH/3T3 fibroblasts (NIH3T3, 10 μM) is under 20%. Further, in the series on NIH/3T3 fibroblasts (NIH3T3, 30 μM), the inhibition at 30 µM was under 20%.

Values taken from article PMC9861858, “Stereoselective Synthesis and Antiproliferative Activities of Tetrafunctional Diterpene Steviol Derivatives” (International Journal of Molecular Sciences, 2023).
